Assays:
[1] = target: T1, GlADI (giardial arginine deiminase) (Giardia duodenalis, UniProt E2RU36); assay: residual activity after […] h preincubation, GlDH-coupled NADH assay; assay type: biochemical; set-up: gene GL50803_00112103; recombinant in pET28a(+), E. coli Rosetta 2 (DE3) pLysS; N-terminal His6 tag not cleaved; 580 residues; homodimer; 16 Cys per monomer; conditions: covalent (Cys modification); 2 h, pH 8.0, 25 °C
[2] = target: T1, GlADI (giardial arginine deiminase); assay: residual activity after timed preincubation, GlDH-coupled NADH assay; slope of k1 vs concentration; assay type: biochemical; set-up: gene GL50803_00112103; recombinant in pET28a(+), E. coli Rosetta 2 (DE3) pLysS; N-terminal His6 tag not cleaved; 580 residues; homodimer; 16 Cys per monomer; conditions: covalent (Cys modification), second-order inactivation rate constant, pH 8.0, 25 °C
[3] = target: T1, GlADI (giardial arginine deiminase); set-up: gene GL50803_00112103; conditions: 8 mM L-arginine, pH 8.0, 25 °C

T1 sequence (E2RU36 entry or part of it): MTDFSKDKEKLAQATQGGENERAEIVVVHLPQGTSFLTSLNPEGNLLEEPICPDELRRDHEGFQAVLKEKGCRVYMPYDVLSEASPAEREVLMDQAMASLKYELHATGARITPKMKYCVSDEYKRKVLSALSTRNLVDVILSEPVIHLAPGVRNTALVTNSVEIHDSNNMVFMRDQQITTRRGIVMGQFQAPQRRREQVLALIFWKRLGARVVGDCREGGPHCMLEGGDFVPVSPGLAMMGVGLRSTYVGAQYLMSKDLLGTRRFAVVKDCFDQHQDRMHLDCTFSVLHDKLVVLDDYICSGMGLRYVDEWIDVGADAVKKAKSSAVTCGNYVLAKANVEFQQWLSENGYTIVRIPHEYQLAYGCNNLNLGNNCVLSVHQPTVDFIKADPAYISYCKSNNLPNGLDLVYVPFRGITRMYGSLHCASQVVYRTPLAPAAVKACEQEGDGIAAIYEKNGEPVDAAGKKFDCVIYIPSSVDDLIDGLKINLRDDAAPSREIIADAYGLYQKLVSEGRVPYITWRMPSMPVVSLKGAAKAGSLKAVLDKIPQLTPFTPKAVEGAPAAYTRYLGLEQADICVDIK

| Compound | residual activity (%) [1] | further results |
| --- | --- | --- |
| COc1ccc2[nH]c([S+]([O-])Cc3ncc(C)c(OC)c3C)nc2c1 (stereo not drawn) [omeprazole] | all of these drugs were able to inhibit recombinant GlADI in vitro in a dose-dependent manner | – |
| COCCCOc1ccnc(C[S+]([O-])c2nc3ccccc3[nH]2)c1C (stereo not drawn) [rabeprazole] | – | k2 ([2]; 5-110 µM): 6.72 ± 0.2 M⁻¹ s⁻¹ |
| N=C(N)NCCC[C@H](N)C(=O)O [L-arginine] | – | GlDH-coupled NADH oxidation at 340 nm [3]: monitoring the conversion of L-arginine to citrulline |
| O=C(O)c1cc(SSc2ccc([N+](=O)[O-])c(C(=O)O)c2)ccc1[N+](=O)[O-] [DTNB, dithio-bis-nitrobenzoic acid] | caused inactivation of the enzyme in a dose-dependent manner (Figure 1E,F) | – |
| CC(=C(CCOC(=O)C(C)C)SSC(CCOC(=O)C(C)C)=C(C)N(C=O)Cc1cnc(C)nc1N)N(C=O)Cc1cnc(C)nc1N (stereo in doubt) [sulbutiamine] | all of these drugs were able to inhibit recombinant GlADI in vitro in a dose-dependent manner | – |
| CSS(C)(=O)=O [MMTS, s-methyl methanethiosulfonate] | – | k2 ([2]; 2.5-85 µM): 15.68 ± 0.9 M⁻¹ s⁻¹ |
